Measured values from patent US10532105B2, “Formulations for improving the efficacy of hydrophobic drugs” (Peptinovo Biopharma, LLC, priority 2015, dated 2020).
Non-standard residues stand in square brackets, D forms with d. No end group written: not given here. Aib = CC(C)(N)C(=O)O

Legend:
BHK(SR-BI) cells = test: DiI uptake from PALM or HDL by BHK(SR-BI) cells, SR-BI un-induced or induced; type: cell-based, hamster; settings: for Increase Over Un-induced: DiI uptake, induced vs un-induced cells; for Induced DiI Uptake: SR-BI induced (10 nM mifepristone) BHK(SR-BI) cells; for Induced DiI Uptake / Un-induced DiI Uptake: 4 hours, mean ± SEM, n = 4; for Un-induced DiI Uptake: un-induced BHK(SR-BI) cells, relative to protein (HDL) or peptide (PALM) concentration
Protocol: SR-BI interaction studies are done with BHK(SR-BI) cells obtained from the NIH. The cells were stably transfected with an inducible human SR-BI gene by means of the GeneSwitch™ System (Invitrogen). The cells were plated (96-well plate) (8000 cells/well) in growth medium (Dulbeco's modified Eagle medium containing 10% fetal bovine serum) containing 200 ug/ml each of zeocin and hygromycin. After 24 hours incubation, the growth medium was removed and replaced with 0.2% bovine serum albumin in Dulbeco's modified Eagle medium. The medium of cells to be induced for SR-BI expression also contained 10 nM mifepristone, added from a DMSO stock solution. DMSO alone was added to the medium of uninduced cells. The induction medium was removed after 24 hours and replaced with medium containing DiI-labeled PALM (32 μg peptide/ml) or DiI-labeled HDL (19 μg protein/ml) (Kalen Biomedical, Montgomery Village, Md.). The test media were prepared by diluting an aliquot of Di-I-labeled PALM (Example 5) or the DiI-labeled HDL in 0.2% bovine serum albumin in Dulbeco's modified Eagle medium. The solutions were passed through 0.2 μm pore size, polyethersulfone, sterilization filters before use. The cells were incubated for 4 hours. Next, the cells were washed 3 times with 0.1% albumin in Dulbeco's phosphate buffered saline (with calcium and magnesium). The last wash was replaced with 200 ul/well of t-butanol/water (95%/5%). The covered plate was left to stand at ROOM TEMPERATURE for 30 min with occasional shaking. The fluorescence in each well was detected at 520 nm excitation and 580 nm emission with a 550 nm cutoff filter on a Molecular Dynamics Gemini fluorescence plate reader (FIG. 9).

[1] = Stability of peptide/phospholipid complexes by visual inspection; type: physicochemical; settings: SM, PC/SM 70/30
Protocol: Separate stock solutions of peptide and phospholipids were prepared in a solvent mixture composed of 80% tert-butyl alcohol (TBA) and 20% water to obtain separate solutions of 10 mM peptide, 20 mM 1,2-dioleoyl-sn-glycero-3-phosphocholine (DOPC) or 20 mM 1-palmitoyl-2-oleoyl-phosphatidylcholine (POPC) and 20 mM egg SM. Aliquots of stock solution were combined to obtain a final solution containing 10 mole equivalents of peptide, 42 mole equivalents of phosphatidylcholine and 18 mole equivalents of SM. The solutions were combined in a 1.5 ml glass vial, frozen (−70° C.), and lyophilized at −5 to −10° C. overnight. The resultant lyophilized cakes were rehydrated by addition of Dulbeco's phosphate buffered saline followed by gentle swirling of the contents. Formation of PALM was completed by incubating the PALM solution at 50° C. for 10 minutes. […] The qualities of the PALM preparations were evident in their appearance. A visually clear preparation indicated any nanoparticles that had formed were less than approximately 20 nm diameter.

| Substance | Increase Over Un-induced (BHK(SR-BI) cells) [%] | Induced DiI Uptake (BHK(SR-BI) cells) [pmol/µg/mL] | Un-induced DiI Uptake (BHK(SR-BI) cells) [pmol/µg/mL] | Stability by visual inspection (appearance) ([1]; DOPC, C16PTX/PL mole ratio 0) | Stability by visual inspection (appearance) ([1]; DOPC, C16PTX/PL mole ratio 0.1) | Stability by visual inspection (appearance) ([1]; POPC, C16PTX/PL mole ratio 0) | Stability by visual inspection (appearance) ([1]; POPC, C16PTX/PL mole ratio 0.1) |
| --- | --- | --- | --- | --- | --- | --- | --- |
| DV{AIB}QKFLELFNQLLEKWKQV (DV[Aib]QKFLELFNQLLEKWKQV) [SEQ ID NO: 32] | 221 | 0.90 ± 0.03 | 0.28 ± 0.02 | Turbid | Turbid | Clear | Turbid |
| DVFQKLVELFNQLLEKWKQV [SEQ ID NO: 26] | 65 | 0.81 ± 0.04 | 0.49 ± 0.04 | – | – | Clear | Turbid |
| DV{AIB}QKLFELFNQLLEKWKQV (DV[Aib]QKLFELFNQLLEKWKQV) [SEQ ID NO: 27] | 90 | 0.66 ± 0.02 | 0.34 ± 0.01 | Turbid | – | Clear | Turbid |
| DVFQKL{AIB}ELFNQLLEKWKQV (DVFQKL[Aib]ELFNQLLEKWKQV) [SEQ ID NO: 25] | 245 | 0.83 ± 0.02 | 0.24 ± 0.01 | Clear | Clear | Clear | Clear |
| DVFQKL{AIB}ELFNQL{AIB}EKWKQV (DVFQKL[Aib]ELFNQL[Aib]EKWKQV) [SEQ ID NO: 35] | 264 | 1.26 ± 0.06 | 0.35 ± 0.01 | – | – | – | – |
| DVFQ{AIB}LKELLNQLLEKFKQV (DVFQ[Aib]LKELLNQLLEKFKQV) [SEQ ID NO: 5] | 73 | 0.93 ± 0.03 | 0.54 ± 0.03 | – | – | – | – |
| DVFQ{AIB}LKELFNQLLEKWKQV (DVFQ[Aib]LKELFNQLLEKWKQV) [SEQ ID NO: 3] | 88 | 0.29 ± 0.03 | 0.16 ± 0.01 | – | – | – | – |
